Here are results for one compound from US8637507B2, “Bicyclic compounds as inhibitors of diacylglycerol acyltransferase” (Merck Sharp & Dohme Corp., priority 2009, dated 2014).

As usually defined, the IC50 is the concentration that gives 50% inhibition.

This test deals with human DGAT1 enzyme (Homo sapiens (Human), UniProt O75907). The conditions noted are these: read-out: hDGAT1 IC50; human DGAT1 expressed in Sf9 insect cells, microsomes; 2 hours at room temperature.
human DGAT1 enzyme, sequence (O75907 whole entry): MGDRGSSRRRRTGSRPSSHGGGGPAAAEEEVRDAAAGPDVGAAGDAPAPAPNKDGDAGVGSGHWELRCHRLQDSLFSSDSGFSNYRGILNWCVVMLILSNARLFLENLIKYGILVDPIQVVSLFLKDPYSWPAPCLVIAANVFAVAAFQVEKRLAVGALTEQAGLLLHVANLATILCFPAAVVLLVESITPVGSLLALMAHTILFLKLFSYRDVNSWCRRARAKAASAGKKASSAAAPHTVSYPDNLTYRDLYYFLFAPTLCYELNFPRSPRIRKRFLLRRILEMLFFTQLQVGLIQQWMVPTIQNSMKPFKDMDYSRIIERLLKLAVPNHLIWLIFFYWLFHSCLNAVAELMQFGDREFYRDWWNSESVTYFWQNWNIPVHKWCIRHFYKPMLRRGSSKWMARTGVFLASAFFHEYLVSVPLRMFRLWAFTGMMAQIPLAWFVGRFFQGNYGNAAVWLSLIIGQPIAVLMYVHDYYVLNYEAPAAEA

Procedure: The in vitro assay to identify DGAT1 inhibitors uses human DGAT1 enzyme expressed in Sf9 insect cells prepared as microsomes. The reaction was initiated by the addition of the combined substrates 1,2-dioleoyl-sn-glycerol and [^14C]-palmitoyl-CoA and incubated with test compounds and microsomal membranes for 2 hours at room temperature. The assay was stopped by adding 0.5 mg wheat germ agglutinin beads in assay buffer with 1% Brij-35 and 1% 3-cholamidopropyldimethyl-ammonio-1-propane sulfonate. Plates were sealed with TopSeal and incubated for 18 hours to allow the radioactive triglyceride product to come into proximity with the bead. Plates were read on a TopCount instrument.
Percent inhibition was calculated as the percent of (test compound inhibition minus non-specific binding) relative to (total binding minus non-specific binding). IC50 values were determined by curve fitting the data to a Sigmoidal dose-response in GraphPad Prism utilizing the following equation: Y=A+(B−A)/(1+10^((Log IC50−X))), where A and B are the bottom and top of the curve (highest and lowest inhibition), respectively, and X is the logarithm of concentration.

`Cc1cc(C(=O)Nc2ccccc2)c2ccc(-c3ccc(OCC(C)(C)C(=O)O)nc3)cc2n1` [Example B-17, 2,2-dimethyl-3-(5-(2-methyl-4-(phenylcarbamoyl)quinolin-7-yl)pyridin-2-yloxy)propanoic acid]: the IC50 came to 0.275 µM.
